# Experimental data published in patent US8637043B2, “Compositions useful as ligands for the formyl peptide receptor like 1 receptor and methods of use thereof” (Chemocentryx, Inc., priority 2001, dated 2014).
# pIC50: −log10 of the molar value. Values joined by “and” are separate entries in the source; they are usually repeats but may differ in a detail not shown here. Identical values can stand only once. Ends that are not written are not given here.
# Columns and labels:
# OVA-specific IgG = assay: Adjuvant activity, anti-OVA antibodies in mice (Example 17); format: in vivo, BALB/c mice; conditions: 10 μg OVA
# Description: First, 96-well U-bottom plastic dishes were coated overnight with 1 μg ovalbumin (OVA) in 100 μl PBS per well. The next day, the dishes were rinsed with PBS, blocked with PBS containing 5% fetal bovine serum (FBS), and rinsed with PBS again. Plasma samples from experimental animals (see below) were diluted 10^2- to 10^5-fold and added to the dishes for 2 hours, after which the dishes were again rinsed with PBS. The dishes were then incubated with biotinylated goat anti-monkey IgG detection antibodies, then rinsed with PBS and incubated with streptavidin-linked horseradish peroxidase (SA-HRP). After a final rinsing with PBS, the HRP substrate 2,2′-Azinobis [3-ethylbenzothiazoline-6-sulfonic acid]-diammonium salt was added. Color development was measured with an ELISA plate reader at 405 nm, and optical density (OD) units were converted to arbitrary “antibody units,” where a unit is defined as the inverse of the plasma dilution that produces 50% of the maximum response from a standard curve obtained by serial dilution of an ascites collected from OVA-injected mice and containing OVA-specific antibodies.
# The experiment described in Example 16 was repeated, except the formulations were administered to BALB/c mice with 10 μg (Table 20) or 500 μg (Table 21) of OVA with in 100 μl. IFA was not used.
# BALB/c mice were given OVA with or without SHAAYtide (SEQ ID NO:6) either intraperitoneally on days 0 and 21 (Table 20), or sub-cutaneously on days 0 and 14 (Table 21). Blood samples were collected at the indicated time points. The results, reported in antibody units, are given in Tables 20 and 21, showing IgG levels.
# dendritic cells = assay: Dendritic cell infiltration after intradermal injection in mice (anti-DEC-205 staining); format: in vivo; parameters: key to Dendritic cell infiltration Score / Infiltration Score: 0 = none, 1 = slight, 2 = mild, 3 = moderate, 4 = severe; conditions: for Infiltration Score: BALB/c mice, various doses
# From the text: The following chemokines were obtained from R&D Systems (Minneapolis, Minn.): vMCK-2, mC10, and GM-CSF. The following peptides were synthesized at Phoenix Pharmaceuticals (San Carlos, Calif.): SHAAYtide (SEQ ID NO:6), several […] MODIFIED peptides of SHAAGtide variant (SEQ ID NO:) (i.e. cyclized using the MPR-Cys linked cyclization), control peptide (SEQ ID NO:33, […]Gin Pro Gly lie Lys Arg Arg Trp Leu Met), randomly conjugated to OVA in either a 1:1 or 1:4 ratio (by MBS coupling method), and conjugated to OVA at the C-terminus (C-term, made by the addition of a cysteine), and SHAAGtide variant (SEQ ID NO:3). In three separate experiments, chemokines or peptides (2 μg or 20 μg in PBS) were injected intradermally into BALB/c or C57BI/6 mice (Jackson Laboratory; Bar Harbor, Me.). In each experiment, one mouse received an injection of PBS only as a negative control. At various times after injection, the mice were euthanized, and the area around the injection site was excised and subjected to immunohistology. Frozen sections were stained with anti-DEC-205 antibody (Bio-Whittaker Molecular Applications; Rockland, Me.) that recognizes a dendritic cell-specific molecule (Kraal et al., 1986). A relative staining number on a scale of […] was assigned to each section (0, none; 1, slight; 2, mild; 3, moderate; 4, severe).
# human FPRL1 = target: T1, human FPRL1 (Homo sapiens, UniProt P25090); assay: Calcium flux in FPRL1-L1.2 transfectants; format: cell-based; conditions: for Designation and FPRL1 Activity: qualitative rating high, moderate, low, see Example 9; for Notes: activity: qualitative rating, Table 6
# T1 construct: Full length cDNA encoding FPRL1 was cloned, using the polymerase chain reaction (PCR), from genomic DNA isolated from undifferentiated HL-60 cells; expressed in transfected cells; linearized FPRL1/pcDNA3.1, electroporation
# T1 sequence (P25090 1-351): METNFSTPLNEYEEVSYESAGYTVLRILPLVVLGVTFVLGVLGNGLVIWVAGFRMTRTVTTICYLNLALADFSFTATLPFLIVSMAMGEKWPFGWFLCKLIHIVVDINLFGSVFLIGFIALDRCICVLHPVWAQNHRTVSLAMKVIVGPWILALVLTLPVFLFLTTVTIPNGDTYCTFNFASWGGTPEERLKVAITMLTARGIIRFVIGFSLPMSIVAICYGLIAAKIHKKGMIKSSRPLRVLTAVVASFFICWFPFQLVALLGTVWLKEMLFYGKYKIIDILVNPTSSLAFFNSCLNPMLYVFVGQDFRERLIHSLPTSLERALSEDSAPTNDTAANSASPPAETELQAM
# Description: Ca^2+ mobilization responses were performed using the intracellular ratiometric fluorescent dye, lndo-1. Cells were loaded with Indo-1/AM (3 μM; Molecular Probes, Eugene, Oreg.) in culture medium (45 min, 20° C., 10^7 cells/ml). After dye loading, cells were washed once with 10 ml PBS) and resuspended at 10^6 cell/ml in HBSS containing 1% FBS. Cytosolic [Ca^2+] release was determined using excitation at 350 nm using a Photon Technology International fluorimeter (excitation at 350 nm, ratioed dual emission at 400 and 490 nm).
# The functional activities of CKβ8-1 (25-116) were investigated in human FPRL1-L1.2 transfectants and in native L1.2 cells. Stable expression of formyl peptide-like receptor 1 (FPRL1) in L.1.2 cell was obtained as follows. Full length cDNA encoding FPRL1 was cloned, using the polymerase chain reaction (PCR), from genomic DNA isolated from undifferentiated HL-60 cells. […] Twenty micrograms of the FPRL1/pcDNA3.1 construct were linearized by digestion with Bsm1 (New England Biolabs, Beverly, Mass.) and used to transfect the murine B cell line L1.2 as follows. Twenty five million cells were washed twice and resuspended in 0.8 ml of PBS. The cells were incubated for 10 min at room temperature with the linearized FPRL/pcDNA3.1 construct DNA and transferred to a 0.4-cm cuvette, and a single electroporation pulse was applied at 250 V, 960 μF. Electroporated cells were incubated for 10 min at room temperature and transferred to culture at 37° C. in RPMI supplemented with 10% FCS. Geneticin (G418) was added to a final concentration of 800 μg/ml 48 h posttransfection and the cells plated into 96-well plates at 25,000 cells/well. After 2-3 weeks under drug selection, stable geneticin-resistant FPLR1 expressing cells were assessed for their ability to mobilize Ca^++ in response to SHAAGtide or CKbeta 8-1 at concentrations of 1 to 1000 nM.
# A calcium flux test was performed on these transfectants using the method described in Example 1.
# Stable expression of human FPRL1 in L1.2 cells was obtained as in Example 6. Calcium flux tests were conducted on the transfectants using the method described in Example 1. Chemokines (CKβ8(1-99), CKβ8(25-99), CKβ8-1(1-116) and CKβ8-1(25-116), were prepared as in Example 1. W peptides 1 and 2 were obtained as in Example 6. In addition, and the following SHAAGtide sequences and truncated variants (prepared as in Example 8) were tested:
# All ligands were added in a dose response manner and the peak calcium flux response determined.
# [1] = intraperitoneally on days 0 and 21, 0 day
substance,measurement,setting,value
2 μg SHAAYtide (SEQ ID NO: 6): 2 μg SHAAYtide without OVA (MLWRRKIGPQMTLSHAAY; SHAAGtide variant),"anti-OVA IgG, individual mouse",OVA-specific IgG; [1],7 antibody units (2×) and 14 antibody units and 24 antibody units
same,"anti-OVA IgG, average","OVA-specific IgG; intraperitoneally, 0 day",13 antibody units
same,"anti-OVA IgG, average","OVA-specific IgG; intraperitoneally, 10 d",68 antibody units
same,"anti-OVA IgG, increase from day 0","OVA-specific IgG; intraperitoneally, 10 d",55 antibody units
same,"anti-OVA IgG, individual mouse","OVA-specific IgG; intraperitoneally, 10 d",0 antibody units (3×) and 273 antibody units
same,"anti-OVA IgG, average","OVA-specific IgG; intraperitoneally, 15 d",0 antibody units
same,"anti-OVA IgG, increase from day 0","OVA-specific IgG; intraperitoneally, 15 d",0 antibody units
same,"anti-OVA IgG, individual mouse","OVA-specific IgG; intraperitoneally, 15 d",0 antibody units
same,"anti-OVA IgG, average","OVA-specific IgG; intraperitoneally, 27 d",51 antibody units
same,"anti-OVA IgG, increase from day 0","OVA-specific IgG; intraperitoneally, 27 d",38 antibody units
same,"anti-OVA IgG, individual mouse","OVA-specific IgG; intraperitoneally, 27 d",47 antibody units (2×) and 58 antibody units
same,"anti-OVA IgG, average","OVA-specific IgG; intraperitoneally, 31 d",19 antibody units
same,"anti-OVA IgG, increase from day 0","OVA-specific IgG; intraperitoneally, 31 d",6 antibody units
same,"anti-OVA IgG, individual mouse","OVA-specific IgG; intraperitoneally, 31 d",47 antibody units and 17 antibody units and 12 antibody units and 0 antibody units
same,"anti-OVA IgG, average","OVA-specific IgG; intraperitoneally, 36 d",42 antibody units
same,"anti-OVA IgG, increase from day 0","OVA-specific IgG; intraperitoneally, 36 d",29 antibody units
same,"anti-OVA IgG, individual mouse","OVA-specific IgG; intraperitoneally, 36 d",60 antibody units (2×) and 46 antibody units and 0 antibody units
20 μg SHAAYtide (SEQ ID NO: 6): 20 μg SHAAYtide without OVA (MLWRRKIGPQMTLSHAAY; SHAAGtide variant),"anti-OVA IgG, individual mouse",OVA-specific IgG; [1],31 antibody units and 47 antibody units and 139 antibody units and 64 antibody units
same,"anti-OVA IgG, average","OVA-specific IgG; intraperitoneally, 0 day",70 antibody units
same,"anti-OVA IgG, average","OVA-specific IgG; intraperitoneally, 10 d",158 antibody units
same,"anti-OVA IgG, increase from day 0","OVA-specific IgG; intraperitoneally, 10 d",88 antibody units
same,"anti-OVA IgG, individual mouse","OVA-specific IgG; intraperitoneally, 10 d",0 antibody units (2×) and 40 antibody units and 592 antibody units
same,"anti-OVA IgG, average","OVA-specific IgG; intraperitoneally, 15 d",42 antibody units
same,"anti-OVA IgG, increase from day 0","OVA-specific IgG; intraperitoneally, 15 d",0 antibody units
same,"anti-OVA IgG, individual mouse","OVA-specific IgG; intraperitoneally, 15 d",0 antibody units (3×) and 168 antibody units
same,"anti-OVA IgG, average","OVA-specific IgG; intraperitoneally, 27 d",112 antibody units
same,"anti-OVA IgG, increase from day 0","OVA-specific IgG; intraperitoneally, 27 d",41 antibody units
same,"anti-OVA IgG, individual mouse","OVA-specific IgG; intraperitoneally, 27 d",122 antibody units and 110 antibody units and 116 antibody units and 98 antibody units
same,"anti-OVA IgG, average","OVA-specific IgG; intraperitoneally, 31 d",40 antibody units
same,"anti-OVA IgG, increase from day 0","OVA-specific IgG; intraperitoneally, 31 d",0 antibody units
same,"anti-OVA IgG, individual mouse","OVA-specific IgG; intraperitoneally, 31 d",12 antibody units and 32 antibody units and 69 antibody units and 47 antibody units
same,"anti-OVA IgG, average","OVA-specific IgG; intraperitoneally, 36 d",0 antibody units
same,"anti-OVA IgG, increase from day 0","OVA-specific IgG; intraperitoneally, 36 d",0 antibody units
same,"anti-OVA IgG, individual mouse","OVA-specific IgG; intraperitoneally, 36 d",0 antibody units
GM-CSF,Infiltration Score,dendritic cells; 6 hours,2 and 1
same,Infiltration Score,dendritic cells; 30 hours,1
same,infiltration of DEC-205-labeled cells,"dendritic cells; summary of Tables 15, 16 and 17",excellent infiltration
IGPQMTLSHAAG [SEQ ID NO: 4],Designation and FPRL1 Activity,human FPRL1,Low
LWRRKIGPQMTLSH [SEQ ID NO: 11],Designation and FPRL1 Activity,human FPRL1,does not result in a complete loss in FRPL1 activity
same,Designation and FPRL1 Activity,human FPRL1; listed as CCXP11,Moderate
same,Notes: activity,human FPRL1,Moderate
MLWRRKIGPQM [SEQ ID NO: 8],Designation and FPRL1 Activity,human FPRL1,moderate FPRL1 activity
same,Designation and FPRL1 Activity,human FPRL1; listed as CCXP8,Moderate
same,Notes: activity,human FPRL1,Moderate
MLWRRKIGPQMT [SEQ ID NO: 5],Designation and FPRL1 Activity,human FPRL1,Moderate
same,Notes: activity,human FPRL1,Moderate
MLWRRKIGPQMTLSH [SEQ ID NO: 3],Designation and FPRL1 Activity,human FPRL1,High
same,Notes: activity,human FPRL1,High
RRKIGPQMTLSHAAG [SEQ ID NO: 2],pIC50,"human FPRL1; peak calcium flux, dose response, read-out: Induction of Calcium Flux in FPRL1 L1.2 Cells, IC 50",< 4.30
"SHAAYtide (SEQ ID NO: 6), cyclized: structurally modified peptide, cyclized using the MPR-Cys linked cyclization (MLWRRKIGPQMTLSHAAY; also: cyclized using MPR-Cys linked cyclization, MPR and Cys not in given letters)",Infiltration Score,dendritic cells; 30 hours,1 and 2
"WRRKIG [SEQ ID NO: 10, Trp Arg Arg Lys Ile Gly]",Designation and FPRL1 Activity,human FPRL1,Low
WRRKIGPQM [SEQ ID NO: 9],Designation and FPRL1 Activity,human FPRL1,Low
WRRKIGPQMTLSHAAG [SEQ ID NO: 7],Designation and FPRL1 Activity,human FPRL1,Low
